Values after ≈ are worked out from the molar mass of the structure shown.
Legend:
Format in all cases: functional
Conditions in all cases: read-out: ED50 (the source's name)
P388 = assay: Cytotoxicity against mouse P388 cells
HT-29 = assay: Cytotoxicity against human HT-29 cells
A549 = assay: Cytotoxicity against human A549 cells

**Q.** Which EC50 (P388) does the source give for `C=C(C)[C@H]1[C@@H]2[C@H](C)CC[C@@H]2[C@@]2(C)CC[C@@H]12` here?
**A.** 2.8 µg/mL (≈ 13.7 µM)

**Q.** What about the EC50 (HT-29) of the same compound?
**A.** 3.2 µg/mL (≈ 15.7 µM)

**Q.** Which results are given for `C/C(CS)=C1\[C@@H]2[C@H](C)CC[C@@H]2[C@@]2(C)CC[C@@H]12` (relative stereo)?
**A.** EC50 (P388): 1.3 µg/mL (≈ 5.5 µM); EC50 (HT-29): 1.8 µg/mL (≈ 7.61 µM)

**Q.** `CO[C@H](C(=O)[C@@H](O)[C@@H](C)O)[C@@H]1Cc2cc3cc(O[C@H]4C[C@@H](O[C@@H]5C[C@@H](O)[C@H](O)[C@@H](C)O5)[C@H](O)[C@@H](C)O4)c(C)c(O)c3c(O)c2C(=O)[C@H]1O[C@H]1C[C@@H](O[C@@H]2C[C@@H](O)[C@@H](O[C@@H]3C[C@](C)(O)[C@H](O)[C@@H](C)O3)[C@@H](C)O2)[C@H](O)[C@@H](C)O1` [PLICAMYCIN] was tested. Which EC50 (A549) did it give?
**A.** 0.07 µg/mL (≈ 0.0645 µM)

**Q.** What about the EC50 (P388) of the same compound?
**A.** 0.06 µg/mL (≈ 0.0553 µM)

**Q.** And the EC50 (HT-29)?
**A.** 0.08 µg/mL (≈ 0.0737 µM)

From ChEMBL document CHEMBL3102797, “Kelsoenethiol and dikelsoenyl ether, two unique kelsoane-type sesquiterpenes, from the Formosan soft coral Nephthea erecta” (2014)
